We go through 63 compounds from a melting point compilation (Tetko et al.; mined from patent text by program, amines drawn as free bases though some values may be those of a salt).

The compound `Cc1n[nH]c(CCCCn2cnc(NC(N)=NCC(F)(F)F)n2)n1` showed a melting point of 175 to 176 °C.

With `CCCCNC(=O)Oc1c(C)cc(Oc2ccc(C)cc2)cc1C`, the melting point lay in the range of 110 to 112 °C.

Take `CN1CCC(n2cc(C3=C(c4cn(C)c5ccccc45)C(=O)NC3=O)c3ccccc32)CC1`: the melting point was 316 to 318 °C.

The compound `CNC(=O)/C(=N/OC)c1ccccc1COc1cccc(SC)n1` showed a melting point of 130 to 132 °C.

`CCOC(=O)C1=C(c2ccc(-n3c(C)nc4cnccc43)cc2)NC(C)=C(C(=O)OCCOC)C1c1ccccc1Cl` (stereo not drawn) yielded a melting point of 195 to 196 °C.

As to `Cc1nc(-c2ccccc2)nc(OCC(=O)N(CC2CC2)c2ccccc2)c1C`, the melting point lay within 119 to 121 °C.

With `COc1ccc(S(=O)(=O)N2CCc3cccc(-c4ccncc4)c32)cc1`, the melting point was in the range of 196 to 197 °C.

`CN1CC(CCN2CCOCC2)Oc2ncccc2C1=S` (stereo not drawn) yielded a melting point of 152 to 153 °C.

With `CCCCCCCCCCCCCCC(C)C(=O)O` (stereo not drawn), the melting point lay within 44 to 46 °C.

In the case of `COc1ccc(-c2cc3cc(F)c(F)cc3[nH]2)cc1NCc1cccs1`, the melting point is 190 to 192 °C.

Compound `C#Cc1c(N)cc(-c2ccc(Cl)c(OC)c2F)nc1C(=O)OC` gave a melting point of 167 to 169 °C.

The compound `COc1ccc(C#N)cc1OC1COCC1OC` (stereo not drawn) came in with a melting point of 98 to 100 °C.

For the compound `Cc1cc2c(c(C)c1NC=O)CC(C)(CI)O2` (stereo not drawn), the melting point was 135 to 138 °C.

With `Oc1ccc([C@H]2CC[C@H](NCCNc3ccccc3)CC2)cc1`, the melting point was in the range of 180 to 184 °C.

As to `COCCOc1ccc(/C=C(\C)C(=O)O)c(Oc2ncc(C(F)(F)F)cc2Cl)c1`, the melting point turned out to be 122 °C.

For the compound `CC(=O)Oc1ccccc1C(=O)SC(C)C(=O)NCC(=O)O` (stereo not drawn), the melting point fell in the range of 100 to 102 °C.

Compound `O[C@H]1CC[C@H](n2cnc(-c3ccc(F)cc3)c2-c2ccnc(Oc3ccccc3)n2)CC1` registered a melting point of 212 to 215 °C.

The compound `O=C1C(=Cc2cccnc2)CCc2ccc(Br)cc21` registered a melting point of 124 to 125 °C.

Compound `CCN1C(=O)C(C(=O)Nc2cccc(C(=O)Nc3ccccc3)c2)c2cc(C(=O)c3ccccc3)ccc21` (stereo not drawn) displayed a melting point of 129 to 135 °C.

`CCn1ncc2c(NCC3CCC(CO)CC3)c3ccccc3nc21` (stereo not drawn) returned a melting point of 188 to 190 °C.

As for `COc1ccc2c(c1)c(N1CCN(C#N)CC1)nn2S(=O)(=O)c1ccccc1`, the melting point fell in the range of 171 to 173 °C.

In the case of `Cc1nc(-c2ccc(C=CC3(O)CN4CCC3CC4)cc2)no1` (stereo not drawn), the melting point fell in the range of 188 to 189 °C.

Compound `CCCCNS(=O)(=O)CC(O)C(O)C(CC1CCCCC1)NC(=O)c1cccnc1` (stereo not drawn) registered a melting point of 61 to 64 °C.

Compound `CNC(=O)c1ccc(C=CC(=O)NCC(=O)N(C)c2ccc(Cl)c(COc3cccc4c(OCC(=O)O)cc(C)nc34)c2Cl)cc1` returned a melting point of 233 to 257 °C.

Turning to `Cc1cc2oc(=O)c3c(c2cc1N)CCN(CCN1CC2CCC(CC2)C1)C3`, the melting point lay within 142 to 143 °C.

Regarding `COc1ccc2ccc(N3C(=O)c4ccccc4C3OC(=O)N3CCN(C)CC3)nc2n1` (stereo not drawn), the melting point was found to be 218 °C.

Take `Cc1cccc(Cn2nnc(C(N)=O)c2N)c1`: the melting point is 200 to 202 °C.

The compound `COC(=O)CC(Nc1ccccc1OC)c1ccc2ccccc2n1` (stereo not drawn) returned a melting point of 119 to 121 °C.

The compound `CNC12CC(O)CCC1CCc1ccccc12` (stereo not drawn) registered a melting point of 141 to 143 °C.

Turning to `COc1ccc2c(c1)S(=O)c1nccnc1N2C` (stereo not drawn), the melting point is 229 to 231 °C.

Take `COC(=O)c1nn(CCN(C)C)c2nc3cc(OC)ccc3cc12`: the melting point was in the range of 127 to 128 °C.

As for `CCCN1CCC[C@@H]2c3cccc(O)c3OC[C@H]21` (relative stereo), the melting point lay within 111 to 114 °C.

Take `O=C1N=C(N2CCOCC2)SC1=Cc1ccc(OC(F)(F)F)c(-c2cc(F)c(O)c(C34CC5CC(CC(C5)C3)C4)c2)c1`: the melting point was determined as 238 °C.

Consider `COCOCc1nc(-c2ccccc2)oc1CCc1ccc(O)cc1`, for which the melting point was in the range of 102 to 103 °C.

Compound `O=C(O)CCc1cc(OCCCc2cn(-c3ccc(C(F)(F)F)cn3)nc2C2CCCCC2)nn1-c1ccccc1` returned a melting point of 182 to 183 °C.

Regarding `COC(=O)c1cccc2c1N=C(c1ccccc1Cl)CC2=O`, the melting point was 166 to 168 °C.

On to `CCCc1c(OCCCOc2ccc3ccc(OCC(=O)O)cc3c2C(C)=O)ccc(C(C)=O)c1O`, for which the melting point fell in the range of 140 to 141 °C.

Turning to `CCOC(=O)c1sc(SC)c2c1CCC(Br)C2=O` (stereo not drawn), the melting point fell in the range of 147 to 148 °C.

Compound `CCCN1CC(c2ccc(S(C)(=O)=O)cc2)=C(c2cccc(C)c2)C1=O` came in with a melting point of 120 to 122 °C.

With `Cc1nnc(-c2cnc3occ(-c4ccc(S(C)(=O)=O)cc4)c3c2)o1`, the melting point fell in the range of 251 to 252 °C.

`O=S(=O)(NC(Cc1ccc(O)cc1)c1ccccc1)c1ccc(Cl)cc1` (stereo not drawn) came in with a melting point of 174 to 178 °C.

Compound `CCNC(=O)c1sc(Oc2ccc3c(c2)OCO3)c2c1CCc1cnn(C)c1-2` displayed a melting point of 138 to 139 °C.

In turn, `CC(C)(O)c1cc(O)cc(C(C)(C)O)c1` returned a melting point of 137 to 138 °C.

`CSCC(C)Nc1nccc(-c2ccnc(Nc3cccc(F)c3)c2)n1` (stereo not drawn) showed a melting point of 104 to 107 °C.

As to `O=C(O)/C=C/c1ccn(C2CCCCCC2)c1`, the melting point was in the range of 138 to 140 °C.

The compound `CC1(C)CC(=O)Nc2c(Br)cc3c(c21)OC(CN=[N+]=[N-])C3` (stereo not drawn) had a melting point of 187 to 189 °C.

`COc1ccc(-c2cccc(-c3nc(-c4ccc(C(F)(F)F)cc4)oc3C)c2)cc1` displayed a melting point of 93 to 94 °C.

`Cc1nccn1CCC(=O)c1nn2c3c(cccc13)CCC2` showed a melting point of 133 to 134 °C.

`CC(=O)SCCC(=O)N1CCC[C@H]1C(=O)O` displayed a melting point of 89 to 90 °C.

On to `Nc1cc(=O)n(Cc2cccc(I)c2)[nH]1`, for which the melting point stood at 186 °C.

`COc1ccc(-c2cc(C(C)(C)CC(C)(C)C)cc(-n3nc4ccc(C(F)(F)F)cc4n3)c2O)cc1` showed a melting point of 99 to 102 °C.

As for `CCCCCC[C@H](C)COC(=O)c1ccc(-c2ccc(O)cc2)cc1`, the melting point was 89 °C.

For `COc1cc(CC(C)(C)NC(=O)c2ccc(=O)n(-c3ccc4cc(C)ccc4n3)c2)cc2c1OC(C)(C)C2`, the melting point fell in the range of 192 to 193 °C.

`Clc1ccc(N2CCN(CCCc3c4c(nn3-c3ccccn3)CCCC4)CC2)cc1` registered a melting point of 101 to 103 °C.

In turn, `N[C@@H](Cc1ccc(OCc2ccccc2)cc1)C(=O)NCCN1CCCCC1` yielded a melting point of 58 to 61 °C.

`CC(C)(C)C(=O)OCOC(=O)c1[nH]c2ccccc2c1Nc1ccncc1` returned a melting point of 223 to 224 °C.

For the compound `Cc1cccc(OCC(F)(F)F)c1N(Cc1cc[nH]n1)C(=O)CCl`, the melting point was 104 to 105 °C.

Compound `O=C(Cc1cccnc1)[N+]1([O-])CCC(C2c3ccc(Cl)cc3CCc3cccnc32)CC1` (stereo not drawn) had a melting point of 117 to 118 °C.

`Cc1cnc(S(=O)(=O)c2ccccc2)c(C)c1Cl` came in with a melting point of 91 to 92 °C.

`Cc1cc2nc(N3CCC(=S)CC3)nc(N)c2cc1C` showed a melting point of 187 to 188 °C.

Compound `O=C(NCc1ccccc1F)[C@@H]1CCCN(c2cccc3c2C(=O)N(Cc2ccncc2)C3=O)C1` displayed a melting point of 196 to 197 °C.

As to `CC(C)(C)OC(=O)NCc1cc(-c2cccnc2)no1`, the melting point lay within 67 to 69 °C.

In turn, `COc1ccc(CN2C(=O)[C@H](NC(=O)OC(C)(C)C)[C@@H]2/C=C/C(N)=O)c(OC)c1` came in with a melting point of 270 °C.

In general, melting point refers to the temperature of the solid-liquid transition.
